The text below walks through data of patent US8580794B2 (AbbVie Inc., priority 2009, dated 2013).

For orientation: Ki means the equilibrium dissociation constant of an inhibitor or competing ligand from its target.

The target in this experiment is GST-Bc1-2 (Homo sapiens, UniProt P10415). In words: Time Resolved-Fluorescence Resonance Energy Transfer (TR-FRET) Bcl-2 binding assay with F-Bak peptide probe. Conditions: GST-Bcl-2 1 nM, F-Bak probe 100 nM, Tb-anti-GST 1 nM; '<' = below limit of detection; read-out: TR-FRET Bcl-2 Binding Ki. A general note: Time-resolved FRET reads energy transfer from a long-lived donor to a nearby acceptor.
GST-Bc1-2, sequence (P10415 whole entry): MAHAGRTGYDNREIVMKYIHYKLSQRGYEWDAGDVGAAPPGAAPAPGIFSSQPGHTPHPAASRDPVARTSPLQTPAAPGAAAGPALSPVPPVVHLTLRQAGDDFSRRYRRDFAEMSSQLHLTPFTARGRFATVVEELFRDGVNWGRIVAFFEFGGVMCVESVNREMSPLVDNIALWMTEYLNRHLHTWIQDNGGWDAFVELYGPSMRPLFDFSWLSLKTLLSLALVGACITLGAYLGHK

Where only a bound is given, the exact number is not on record here.

On to `CC1(C)CCC(CN2CCN(c3ccc(C(=O)NS(=O)(=O)c4ccc(NCCC(F)(F)F)c([N+](=O)[O-])c4)c(Oc4cnc5[nH]ccc5c4)c3)CC2)=C(c2ccc(Cl)cc2)C1` [Example 27, 4-(4-{[2-(4-chlorophenyl)-4,4-dimethylcyclohex-1-en-1-yl]methyl}piperazin-1-yl)-N-({3-nitro-4-[(3,3,3-trifluoropropyl)amino]phenyl}sulfonyl)-2-(1H-pyrrolo[2,3-b]pyridin-5-yloxy)benzamide], for which the Ki stood at 0.134 nM.

For `CC1(C)CCC(CN2CCN(c3ccc(C(=O)NS(=O)(=O)c4ccc(OC[C@@H]5COCCO5)c([N+](=O)[O-])c4)c(Oc4cnc5[nH]ccc5c4)c3)CC2)=C(c2ccc(Cl)cc2)C1` [Example 28, 4-(4-{[2-(4-chlorophenyl)-4,4-dimethylcyclohex-1-en-1-yl]methyl}piperazin-1-yl)-N-({4-[(2S)-1,4-dioxan-2-ylmethoxy]-3-nitrophenyl}sulfonyl)-2-(1H-pyrrolo[2,3-b]pyridin-5-yloxy)benzamide], the Ki is below 0.01 nM.

`CO[C@H]1CC[C@@H](CNc2ccc(S(=O)(=O)NC(=O)c3ccc(N4CCN(CC5=C(c6ccc(Cl)cc6)CC(C)(C)CC5)CC4)cc3Oc3cnc4[nH]ccc4c3)cc2[N+](=O)[O-])CC1` [Example 29, Cis-4-(4-{[2-(4-chlorophenyl)-4,4-dimethylcyclohex-1-en-1-yl]methyl}piperazin-1-yl)-N-[(4-{[(4-methoxycyclohexyl)methyl]amino}-3-nitrophenyl)sulfonyl]-2-(1H-pyrrolo[2,3-b]pyridin-5-yloxy)benzamide]: the Ki is below 0.01 nM.

In the case of `CC1(C)CCC(CN2CCN(c3ccc(C(=O)NS(=O)(=O)c4ccc(OC[C@H]5COCCO5)c([N+](=O)[O-])c4)c(Oc4cnc5[nH]ccc5c4)c3)CC2)=C(c2ccc(Cl)cc2)C1` [Example 30, 4-(4-{[2-(4-chlorophenyl)-4,4-dimethylcyclohex-1-en-1-yl]methyl}piperazin-1-yl)-N-({4-[(2R)-1,4-dioxan-2-ylmethoxy]-3-nitrophenyl}sulfonyl)-2-(1H-pyrrolo[2,3-b]pyridin-5-yloxy)benzamide], the Ki is below 0.01 nM.

As to `CC1(C)CC(c2ccc(Cl)cc2)=C(CN2CCN(c3ccc(C(=O)NS(=O)(=O)c4ccc(NCC5COCCO5)c([N+](=O)[O-])c4)c(Oc4cnc5[nH]ccc5c4)c3)CC2)CO1` (stereo not drawn) [Example 31, 4-(4-{[4-(4-chlorophenyl)-6,6-dimethyl-5,6-dihydro-2H-pyran-3-yl]methyl}piperazin-1-yl)-N-({4-[(1,4-dioxan-2-ylmethyl)amino]-3-nitrophenyl}sulfonyl)-2-(1H-pyrrolo[2,3-b]pyridin-5-yloxy)benzamide], the Ki was below 0.01 nM.

For the compound `CC1(C)CC(c2ccc(Cl)cc2)=C(CN2CCN(c3ccc(C(=O)NS(=O)(=O)c4ccc(OCC5COCCO5)c([N+](=O)[O-])c4)c(Oc4cnc5[nH]ccc5c4)c3)CC2)CO1` (stereo not drawn) [Example 32, 4-(4-{[4-(4-chlorophenyl)-6,6-dimethyl-5,6-dihydro-2H-pyran-3-yl]methyl}piperazin-1-yl)-N-{[4-(1,4-dioxan-2-ylmethoxy)-3-nitrophenyl]sulfonyl}-2-(1H-pyrrolo[2,3-b]pyridin-5-yloxy)benzamide], the Ki was below 0.01 nM.

With `CC1(C)CC(c2ccc(Cl)cc2)=C(CN2CCN(c3ccc(C(=O)NS(=O)(=O)c4ccc(N[C@H]5CC[C@H](N6CCOCC6)CC5)c([N+](=O)[O-])c4)c(Oc4cnc5[nH]ccc5c4)c3)CC2)CO1` [Example 33, Trans-4-(4-{[4-(4-chlorophenyl)-6,6-dimethyl-5,6-dihydro-2H-pyran-3-yl]methyl}piperazin-1-yl)-N-({4-[(4-morpholin-4-ylcyclohexyl)amino]-3-nitrophenyl}sulfonyl)-2-(1H-pyrrolo[2,3-b]pyridin-5-yloxy)benzamide], the Ki was below 0.01 nM.

For the compound `CO[C@H]1CC[C@H](CNc2ccc(S(=O)(=O)NC(=O)c3ccc(N4CCN(CC5=C(c6ccc(Cl)cc6)CC(C)(C)CC5)CC4)cc3Oc3cnc4[nH]ccc4c3)cc2[N+](=O)[O-])CC1` [Example 34, Trans-4-(4-{[2-(4-chlorophenyl)-4,4-dimethylcyclohex-1-en-1-yl]methyl}piperazin-1-yl)-N-[(4-{[(4-methoxycyclohexyl)methyl]amino}-3-nitrophenyl)sulfonyl]-2-(1H-pyrrolo[2,3-b]pyridin-5-yloxy)benzamide], the Ki was 0.01 nM.

`CC1(C)CC(c2ccc(Cl)cc2)=C(CN2CCN(c3ccc(C(=O)NS(=O)(=O)c4cnc(OCC5CCOCC5)c(C#N)c4)c(Oc4cnc5[nH]ccc5c4)c3)CC2)CO1` [Example 35, 4-(4-{[4-(4-chlorophenyl)-6,6-dimethyl-5,6-dihydro-2H-pyran-3-yl]methyl}piperazin-1-yl)-N-{[5-cyano-6-(tetrahydro-2H-pyran-4-ylmethoxy)pyridin-3-yl]sulfonyl}-2-(1H-pyrrolo[2,3-b]pyridin-5-yloxy)benzamide]: the inhibition constant Ki is below 0.01 nM.

Take `CC1(C)CCC(CN2CCN(c3ccc(C(=O)NS(=O)(=O)c4cnc(OCC5CCOCC5)c(C#N)c4)c(Oc4cnc5[nH]ccc5c4)c3)CC2)=C(c2ccc(Cl)cc2)C1` [Example 36, 4-(4-{[2-(4-chlorophenyl)-4,4-dimethylcyclohex-1-en-1-yl]methyl}piperazin-1-yl)-N-{[5-cyano-6-(tetrahydro-2H-pyran-4-ylmethoxy)pyridin-3-yl]sulfonyl}-2-(1H-pyrrolo[2,3-b]pyridin-5-yloxy)benzamide]: the Ki came to 0.017 nM.

On to `CC1(C)CCC(CN2CCN(c3ccc(C(=O)NS(=O)(=O)c4ccc(OCC5(F)CCOCC5)c([N+](=O)[O-])c4)c(Oc4cnc5[nH]ccc5c4)c3)CC2)=C(c2ccc(Cl)cc2)C1` [Example 37, 4-(4-{[2-(4-chlorophenyl)-4,4-dimethylcyclohex-1-en-1-yl]methyl}piperazin-1-yl)-N-({4-[(4-fluorotetrahydro-2H-pyran-4-yl)methoxy]-3-nitrophenyl}sulfonyl)-2-(1H-pyrrolo[2,3-b]pyridin-5-yloxy)benzamide], for which the Ki is below 0.01 nM.

As for `CC1(C)CCC(CN2CCN(c3ccc(C(=O)NS(=O)(=O)c4ccc(OCC5CCOCC5)c(C(N)=O)c4)c(Oc4cnc5[nH]ccc5c4)c3)CC2)=C(c2ccc(Cl)cc2)C1` [Example 38, N-{[3-(aminocarbonyl)-4-(tetrahydro-2H-pyran-4-ylmethoxy)phenyl]sulfonyl}-4-(4-{[2-(4-chlorophenyl)-4,4-dimethylcyclohex-1-en-1-yl]methyl}piperazin-1-yl)-2-(1H-pyrrolo[2,3-b]pyridin-5-yloxy)benzamide], the Ki was determined as 0.3 nM.

For the compound `CC1(C)CCC(CN2CCN(c3ccc(C(=O)NS(=O)(=O)c4ccc(N[C@H]5CC[C@@H](N6CCOCC6)CC5)c([N+](=O)[O-])c4)c(Oc4cnc5[nH]ccc5c4)c3)CC2)=C(c2ccc(Cl)cc2)C1` [Example 39, Cis-4-(4-{[2-(4-chlorophenyl)-4,4-dimethylcyclohex-1-en-1-yl]methyl}piperazin-1-yl)-N-({4-[(4-morpholin-4-ylcyclohexyl)amino]-3-nitrophenyl}sulfonyl)-2-(1H-pyrrolo[2,3-b]pyridin-5-yloxy)benzamide], the inhibition constant (Ki) amounted to 0.012 nM.

With `CC1(C)CCC(CN2CCN(c3ccc(C(=O)NS(=O)(=O)c4cnc(OCC5CCOCC5)c(Cl)c4)c(Oc4cnc5[nH]ccc5c4)c3)CC2)=C(c2ccc(Cl)cc2)C1` [Example 40, 4-(4-{[2-(4-chlorophenyl)-4,4-dimethylcyclohex-1-en-1-yl]methyl}piperazin-1-yl)-N-{[5-chloro-6-(tetrahydro-2H-pyran-4-ylmethoxy)pyridin-3-yl]sulfonyl}-2-(1H-pyrrolo[2,3-b]pyridin-5-yloxy)benzamide], the Ki is below 0.01 nM.

On to `CC1(C)CC(c2ccc(Cl)cc2)=C(CN2CCN(c3ccc(C(=O)NS(=O)(=O)c4cnc(OCC5CCOCC5)c(Cl)c4)c(Oc4cnc5[nH]ccc5c4)c3)CC2)CO1` [Example 41, 4-(4-{[4-(4-chlorophenyl)-6,6-dimethyl-5,6-dihydro-2H-pyran-3-yl]methyl}piperazin-1-yl)-N-{[5-chloro-6-(tetrahydro-2H-pyran-4-ylmethoxy)pyridin-3-yl]sulfonyl}-2-(1H-pyrrolo[2,3-b]pyridin-5-yloxy)benzamide], for which the Ki is below 0.01 nM.

`CC1(C)CC(c2ccc(Cl)cc2)=C(CN2CCN(c3ccc(C(=O)NS(=O)(=O)c4ccc(NCC5CCOCC5)c(C(F)(F)F)c4)c(Oc4cnc5[nH]ccc5c4)c3)CC2)CO1` [Example 42, 4-(4-{[4-(4-chlorophenyl)-6,6-dimethyl-5,6-dihydro-2H-pyran-3-yl]methyl}piperazin-1-yl)-2-(1H-pyrrolo[2,3-b]pyridin-5-yloxy)-N-{[4-[(tetrahydro-2H-pyran-4-ylmethyl)amino]-3-(trifluoromethyl)phenyl]sulfonyl}benzamide]: the Ki was found to be 0.439 nM.

For the compound `CC1(C)CC(c2ccc(Cl)cc2)=C(CN2CCN(c3ccc(C(=O)NS(=O)(=O)c4ccc(NCC5CCOCC5)c(S(=O)(=O)C(F)(F)F)c4)c(Oc4cnc5[nH]ccc5c4)c3)CC2)CO1` [Example 43, 4-(4-{[4-(4-chlorophenyl)-6,6-dimethyl-5,6-dihydro-2H-pyran-3-yl]methyl}piperazin-1-yl)-2-(1H-pyrrolo[2,3-b]pyridin-5-yloxy)-N-({4-[(tetrahydro-2H-pyran-4-ylmethyl)amino]-3-[(trifluoromethyl)sulfonyl]phenyl}sulfonyl)benzamide], the Ki was found to be 0.012 nM.

As for `CC1(C)CC(c2ccc(Cl)cc2)=C(CN2CCN(c3ccc(C(=O)NS(=O)(=O)c4ccc(N[C@H]5CC[C@H](N6CCOCC6)CC5)c(S(=O)(=O)C(F)(F)F)c4)c(Oc4cnc5[nH]ccc5c4)c3)CC2)CO1` [Example 44, Trans-4-(4-{[4-(4-chlorophenyl)-6,6-dimethyl-5,6-dihydro-2H-pyran-3-yl]methyl}piperazin-1-yl)-N-({4-[(4-morpholin-4-ylcyclohexyl)amino]-3-[(trifluoromethyl)sulfonyl]phenyl}sulfonyl)-2-(1H-pyrrolo[2,3-b]pyridin-5-yloxy)benzamide], the Ki was below 0.01 nM.
